Target: T1, Sec−hGPx3 (human plasma glutathione peroxidase, GPx3) (Homo sapiens, UniProt P22352)
T1 construct: mature form without signal peptide (nucleotides 1-72 removed), Sec49 inserted at UAG with tRNA-UTuT6, E. coli C321.ΔA.exp, Ni-NTA purified, unglycosylated, about 25 kDa; starts QEKSKMDCHGGIS
T1 sequence (P22352 25-226): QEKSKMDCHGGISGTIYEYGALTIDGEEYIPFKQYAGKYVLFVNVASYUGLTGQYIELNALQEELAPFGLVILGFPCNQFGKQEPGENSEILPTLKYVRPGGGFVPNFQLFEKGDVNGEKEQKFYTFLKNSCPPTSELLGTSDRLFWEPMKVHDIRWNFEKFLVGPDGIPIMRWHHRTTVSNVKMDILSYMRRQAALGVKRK
Test: glutathione reductase-coupled NADPH oxidation at […] nm
Format: biochemical
Settings: 60 μM t-BuOOH, 1 mM GSH, 0.25 mM NADPH, 1 mM EDTA, pH 7.4, 37 °C; non-tetrameric recombinant enzyme

Q: For `CC(C)(C)OO` [t−BuOOH], which “glutathione reductase-coupled NADPH oxidation at 340 nm” value is on record?
A: GR−coupled assay with H2O2 or t−BuOOH as substrates (Figure 1B), which revealed significant GPx activity

Source: publication PMC9220127, “Reactive Human Plasma Glutathione Peroxidase Mutant with Diselenide Bond Succeeds in Tetramer Formation” (Antioxidants, 2022)
